Results from patent publication US8349215B2, “Corrosion inhibitors having increased biological degradability and minimized toxicity” (Clariant Finance (BVI) Limited, priority 2008, dated 2013).

Legend:
[1] = Biodegradability (OECD 306)
Skeletonema costatum = assay: Toxicity (EC50 Skeletonema costatum); assay type: cell-based

Biodegradability [1] | SMILES | Toxicity EC50 (Skeletonema costatum)
85% | CCCCCCCCN1CC(C(=O)O)CC1=O.NCCO (stereo not shown) [Compound from example 1, N-octyl-5-oxopyrrolidine-3-carboxylic acid monoethanolammonium salt] | >100 µg/mL
78% | CCCCCCCC/C=C\CCCCCCCCN1CC(C(=O)O)CC1=O.NCCO (stereo not shown) [Compound from example 5, N-oleyl-5-oxopyrrolidine-3-carboxylic acid monoethanolammonium salt] | >100 µg/mL
